SMILES strings stand for the structures.

For nine molecules, EC50 results are on record in patent publication US10550084B2, “Substituted 1-hydroxy-pyridin-2(1H)-ones, and methods of making and using same” (ARBUTUS BIOPHARMA CORPORATION, priority 2017, dated 2020).

Assay type in all cases: cell-based
Test [1] deals with HA-tagged HBeAg (HBV) in DESHAe82 cells. Briefly: AlphaLisa eAg: HA-HBeAg level in DESHAe82 cell culture (anti-HBV / anti-cccDNA activity). To be noted: Hepatitis B virus, 216 h, read-out: AlphaLisa_eAg EC50. How it is done:
Evaluation of anti-HBV activity of the compounds in in vitro cell culture studies was conducted using a modification of the assay system described in Cai et al., 2012, Antimicrobial Agents Chemotherapy 56(8):4277-88, and PCT/EP/2015/06838. In the DESHAe82 cell culture system, the HA epitope-tagged secreted HBV “e antigen” (HBeAg) and HBV precore RNA are produced only from the cccDNA circular template that is formed after HBV replication in absence of Tetracycline (Tet). The DESHAe82 cell line produces high levels of cccDNA synthesis and HA-HBeAg, and high specific readout signals with low noise.
Two assay systems, a chemiluminescence ELISA (CLIA) and a proximity […] assay (AlphaLISA) were developed and used for high-sensitivity detection of HA-tagged HBeAg. To test the compound, DESHAe82 were plated in 96 well tissue-culture treated microtiter plates in DMEM/F12 medium supplemented with 10% fetal bovine serum+1% penicillin-streptomycin with Tet, and incubated in a humidified incubator at 37° C. and 5% CO2 overnight. Next day, the cells were switched to fresh medium without Tet and treated with a test compound, over a range of concentrations (compound is solubilized in 100% DMSO before dilution in cell culture media, and the final DMSO concentration in the assay was 0.5%), and incubated for a duration of 9 days in a humidified incubator at 37° C. and 5% CO2. Untreated negative control samples (0.5% DMSO only) were included on each plate in multiple wells. On day 9, media was harvested and removed to a fresh plate, and level of HA-HBeAg was determined by CLIA or AlphaLISA. Anti-cccDNA activity of each test compound concentration was calculated as a percentage of HA-HBeAg signal detected in negative control samples versus compound-treated samples, and EC50 value for each compound was defined as the concentration that reduced the HA-HBeAg signal by 50%.
A general note: In Alpha technology, singlet oxygen from a donor bead excites a nearby acceptor bead.

In test [2] the test system is plus-strand of HBV rcDNA in HepDE19 cells. Briefly: HepDE19 assay with bDNA quantitation of HBV rcDNA, plus-strand probe set. To be noted: Hepatitis B virus, 168 h, 7 days, top concentration 25 μM, Quantigene 2.0 bDNA, plus-strand (PS) rcDNA, read-out: bDNA_RCDNA_PS EC50. How it is done: (§1) (b) HepDE19 Assay with bDNA Quantitation of HBV rcDNA
(§2) HepDE19 cell culture system is a HepG2 (human hepatocarcinoma) derived cell line that supports HBV DNA replication and cccDNA formation in a tetracycline (Tet)-regulated manner and produces HBV rcDNA and a detectable reporter molecule dependent on the production and maintenance of cccDNA (Guo, et al., 2007, J. Virol. 81:12472-12484). HepDE19 (50,000 cells/well) were plated in 96 well collagen-coated tissue-culture treated microtiter plates in DMEM/F12 medium supplemented with 10% fetal bovine serum, 1% penicillin-streptomycin and 1 μg/mL tetracycline and incubated in a humidified incubator at 37° C. and 5% CO2 overnight. Next day, the cells were switched to fresh medium without tetracycline and incubated for 4 hrs at 37° C. and 5% CO2. The cells were treated with fresh Tet-free medium with compounds at concentrations starting at 25 μM and a serial, ½ log, 8-point, titration series in duplicate. The final DMSO concentration in the assay was 0.5%. The plates were incubated for 7 days in a humidified incubator at 37° C. and 5% CO2. Following a 7 day-incubation, the level of rcDNA present in the inhibitor-treated wells was measured using a Quantigene 2.0 bDNA assay kit (Affymetrix, Santa Clara, Calif.) with HBV specific custom probe set and manufacturer's instructions. In order to differentiate HBV RNaseH inhibitors from other classes of HBV inhibitors (for example, nucleos(t)ide analogs or capsid inhibitors), the assay method was configured by incorporating the quantitation of both the minus-strand and the plus-strand of HBV rcDNA levels using specifically designed HBV probe sets. This is based on the observation that inhibition of RNaseH enzyme activity results in a block of the synthesis of the plus strand synthesis by the viral polymerase that follows the synthesis of the minus-strand of rcDNA (Tavis & Lomonosova, 2015, Antiviral Res. 118:132-138). […] In contrast, treatment with HBV inhibitors such as a nucleos(t)ide analogs or capsid inhibitors reduces the production of both strands of HBV rcDNA in cells. Concurrently, the effect of compounds on cell viability was assessed using replicate plates, plated at a density of 5,000 cells/well and incubated for 4 days, to determine the ATP content as a measure of cell viability using the cell-titer glo reagent (CTG; Promega Corporation, Madison, Wis.) as per manufacturer's instructions. The plates were read using a Victor luminescence plate reader (PerkinElmer Model 1420 Multilabel counter) and the relative luminescence units (RLU) data generated from each well was calculated as % inhibition of the untreated control wells and analyzed using XL-Fit module in Microsoft Excel to determine EC50 and EC90 (bDNA) and CC50 (CTG) values using a 4-parameter curve fitting algorithm.

The subject of test [3] is HBV rcDNA in HepDE19 cells. Briefly: HepDE19 assay with bDNA quantitation of HBV rcDNA. The note with it: Hepatitis B virus, 168 h, 7 days, top concentration 25 μM, Quantigene 2.0 bDNA, read-out: bDNA_RCDNA EC50. The protocol:
as §1, §2

On to `CC(=NOc1ccccc1)c1c(C)cc(=O)n(O)c1O` (mixture of isomers) [Compound 2, (E/Z)-1,6-Dihydroxy-4-methyl-5-(1-(phenoxyimino)ethyl)pyridin-2(1H)-one], for which the half-maximal effective concentration (EC50) in test [1] was 1280 nM; in test [2], 4.4 µM; in test [3] it was 17.1 µM.

For `CC(=NOc1ccc(F)cc1)c1c(C)cc(=O)n(O)c1O` (mixture of isomers) [Compound 3, (E/Z)-5-(1-((4-fluorophenoxy)imino)ethyl)-1,6-dihydroxy-4-methylpyridin-2(1H)-one], the results for the 50% effective concentration (EC50) in test [1], in test [2] and in test [3] were 1180 nM, 7.41 µM and 22.2 µM, respectively.

In the case of `CC(=NOCc1ccccc1)c1c(C)cc(=O)n(O)c1O` (mixture of isomers) [Compound 4, (E/Z)-5-(1-((Benzyloxy)imino)ethyl)-1,6-dihydroxy-4-methylpyridin-2(1H)-one], the EC50 in test [1] was 2240 nM; in test [2], 13.3 µM; in test [3], over 25 µM.

For the molecule `CC(=NOCc1ccc(C)cc1)c1c(C)cc(=O)n(O)c1O` (mixture of isomers) [Compound 5, (E/Z)-1,6-Dihydroxy-4-methyl-5-(1-(((4-methylbenzyl)oxy)imino)ethyl)pyridin-2(1H)-one], the 50% effective concentration (EC50) is 1570 nM in test [1], 3.01 µM in test [2] and over 25 µM in test [3].

Consider `CC(=NOCc1ccc(F)cc1)c1c(C)cc(=O)n(O)c1O` (mixture of isomers) [Compound 6, (E/Z)-5-(1-(((4-fluorobenzyl)oxy)imino)ethyl)-1,6-dihydroxy-4-methylpyridin-2(1H)-one], for which the figures for the EC50 in test [1], in test [2] and in test [3] were 640 nM, 5.97 µM and over 25 µM, respectively.

`COc1ccc(CON=C(C)c2c(C)cc(=O)n(O)c2O)cc1` (mixture of isomers) [Compound 7, (E/Z)-1,6-Dihydroxy-5-(1-(((4-methoxybenzyl)oxy)imino)ethyl)-4-methylpyridin-2(1H)-one]: the EC50 in test [1] was 350 nM; in test [2] it was 7.11 µM; in test [3], over 25 µM.

Take `CC(=NOCc1ccccc1N)c1c(C)cc(=O)n(O)c1O` (mixture of isomers) [Compound 8, (E/Z)-5-(1-(((2-Aminobenzyl)oxy)imino)ethyl)-1,6-dihydroxy-4-methylpyridin-2(1H)-one]: the 50% effective concentration (EC50) is 2250 nM in test [1], 11.1 µM in test [2] and over 25 µM in test [3].

With `CC(=NOCc1ccccc1F)c1c(C)cc(=O)n(O)c1O` (mixture of isomers) [Compound 9, (E/Z)-5-(1-(((2-Fluorobenzyl)oxy)imino)ethyl)-1,6-dihydroxy-4-methylpyridin-2(1H)-one], the half-maximal effective concentration (EC50) in test [2] and in test [3] was over 25 µM in each case.

Regarding `COc1ccccc1CON=C(C)c1c(C)cc(=O)n(O)c1O` (mixture of isomers) [Compound 10, (E/Z)-1,6-Dihydroxy-5-(1-(((2-methoxybenzyl)oxy)imino)ethyl)-4-methylpyridin-2(1H)-one], the concentration for a half-maximal effect (EC50) was 980 nM in test [1], 6.53 µM in test [2] and over 25 µM in test [3].

What is called EC50 is the midpoint of the concentration-response curve.
